Results: PubChem BioAssay (NCI)
Where “and” joins values, the source holds several entries; their conditions need not be identical. Equal values may be shown once.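 Assay format: 96-well plates, 48-hour exposure. At the GI50, growth is halved. Definition used: TGI = concentration required for complete inhibition of growth.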

Assays:
Experiment in all cases: growth of human tumour cells (NCI), 48 h
786-0 renal = system: 786-0 renal
CCRF-CEM leukemia = system: CCRF-CEM leukemia
EKVX NSCLC = system: EKVX NSCLC
HS 578T breast = system: HS 578T breast
HT29 colon = system: HT29 colon
KM12 colon = system: KM12 colon
NCI-H460 lung = system: NCI-H460 lung
NCI/ADR-RES ovarian = system: NCI/ADR-RES ovarian
RPMI-8226 leukemia = system: RPMI-8226 leukemia
SF-539 CNS = system: SF-539 CNS
SW-620 colon = system: SW-620 colon
T-47D breast = system: T-47D breast
UO-31 renal = system: UO-31 renal

Structure (SMILES) | TGI (786-0 renal) [µM] | TGI (CCRF-CEM leukemia) [µM] | TGI (EKVX NSCLC) [µM] | TGI (HS 578T breast) [µM] | TGI (HT29 colon) [µM] | TGI (KM12 colon) [µM] | TGI (NCI-H460 lung) [µM] | TGI (NCI/ADR-RES ovarian) [µM] | TGI (RPMI-8226 leukemia) [µM] | TGI (SF-539 CNS) [µM] | TGI (SW-620 colon) [µM] | TGI (T-47D breast) [µM] | TGI (UO-31 renal) [µM] | GI50 (HT29 colon) | GI50 (RPMI-8226 leukemia)
CSc1ccc(-c2cc(-c3nc4ccccc4[nH]3)no2)cc1 | > 100 | > 100 | > 100 | > 100 | 62.1 | 68.5 | 45.7 | 64.1 | 98 | > 100 | > 100 | 37.3 | 43.5 |  | 
O=CNNC(=O)Nc1cccc2ccccc12 | > 100 | > 100 | > 100 | > 100 | > 100 | > 100 | > 100 | > 100 | > 100 | > 100 | > 100 | > 100 | > 100 |  | 
Cc1c2c3ccccc3nc-2n(C)c2ccccc12 | 13 | 5.33 | 10.3 | 20 | 11.6 | 7.91 | 2.85 | 6.78 | 52.7 | 10.8 | 12.9 | 41.3 | 6.25 |  | 
COc1cc2c(cc1OC)C(=O)N(c1ccc(O)cc1)C2=O | > 100 | > 100 | > 100 | > 100 | > 100 |  | > 100 | > 100 | > 100 | > 100 | > 100 | > 100 |  |  | 
Cc1ccc(NC=O)c(-c2c(N)[nH]c(=S)[nH]c2=O)c1 | > 100 | > 100 | > 100 | > 100 | > 100 | > 100 |  | > 100 | > 100 | > 100 | > 100 | > 100 | > 100 |  | 
NC(N)=NC(N)=Nc1ccc(S(=O)(=O)O)cc1 | > 100 | > 100 | > 100 | > 100 | > 100 | > 100 | > 100 | > 100 | > 100 | > 100 | > 100 | > 100 | > 100 |  | 
O=S(=O)(Nc1nc2ccccc2nc1Nc1ccc2ccccc2c1)c1ccccc1 | > 100 | > 77.3 | > 100 | > 74.5 | 25.1 | > 59.3 | 28.8 | > 100 | > 47 | 45.8 | > 100 | > 100 | 39.5 |  | 
O=C(c1nc2ccc([N+](=O)[O-])cc2[nH]c1=O)C(O)c1ccc2c(c1)OCO2 (stereo not given) | > 100 | > 100 | > 100 | > 100 | > 100 | > 93 | > 100 | > 100 | > 100 | > 100 | > 100 | > 100 | > 100 |  | 
COc1ccc2nc(-c3ccccc3)cc(OCC(=O)O)c2c1 | > 100 | > 100 | > 100 | > 100 | > 100 | > 100 | > 100 | > 100 | > 100 | > 100 | > 100 | > 100 | 51.3 |  | 
CC[C@@]1(O)C(=O)OCc2c1cc1n(c2=O)Cc2c-1nc1ccccc1c2/C=N\NC(=O)C1CCCN1 (stereo not given in full) | 8.01 | > 100 | > 100 | > 100 | > 100 | > 44.6 | 10.5 | 20.5 | > 59.7 | 0.318 | > 73.8 | > 100 | 8.27 |  | 
CCN1CCC(O)(c2ccc(Oc3ccc(F)cc3)cc2)C(C(=O)c2ccc(Oc3ccc(F)cc3)cc2)C1 (stereo not given) | 26.4 | 28.1 | 31.8 | 38.4 | 23.6 | 18.3 |  | 30.1 | 8.03 | 33.2 | 30.3 | 30.9 |  |  | 
CN(C(=O)Cc1ccccc1)n1cnn(CC(=O)OC(C)(C)C)c1=S | > 10 | > 10 | > 10 | > 10 | > 10 | > 10 | > 10 | > 10 | > 10 | > 10 | > 10 | > 10 | > 10 |  | 
CCOC(=O)c1[nH]c(-c2[nH]c(-c3[nH]c(-c4[nH]c(C(=O)OCC)c(C)c4C(=O)OCC)c(C(=O)OCC)c3C)c(C)c2C(=O)OCC)c(C(=O)OCC)c1C | > 100 | > 100 | > 100 | > 100 | > 100 | > 100 | > 100 | > 100 | > 100 | > 100 | > 100 | > 100 |  |  | 
C=C(C(=O)O)[C@@H]1C[C@@H]2O[C@H]1[C@@H](O)[C@@H](C)CCCC(C)=CCC[C@@]2(C)O | > 100 | > 100 | > 100 | > 100 | > 100 | > 100 | > 100 | > 100 | > 100 | > 100 | > 100 | > 100 | > 100 | 32.4 µM and > 100 µM | 25 µM and 55.9 µM
O=C1/C(=C\c2cccc(Oc3ccccc3)c2)SC(c2ccccc2)N1c1ccccc1 (stereo not given) | > 100 | 86.4 | > 100 | > 100 | > 100 | > 100 | > 100 | > 100 | 50.3 | 93.6 | > 100 | > 100 | > 100 |  | 
COC(=O)C1Cc2cc3c(cc2C1=O)CCCC3 (stereo not given) | > 100 | > 100 | > 100 | > 100 | > 100 | > 100 | > 100 | > 100 | > 100 | > 100 | > 100 | > 100 | > 100 |  | 
CC(=N\N)/C(C)=N/N=C(C)/C(C)=N/N | > 100 | > 100 | > 100 | > 100 | > 100 | > 100 | > 100 | > 100 | > 100 | > 100 | > 100 | > 100 | > 100 |  | 

Structure (SMILES) | TGI (786-0 renal) [µM] | TGI (CCRF-CEM leukemia) [µM] | TGI (EKVX NSCLC) [µM] | TGI (HS 578T breast) [µM] | TGI (HT29 colon) [µM] | TGI (KM12 colon) [µM] | TGI (NCI-H460 lung) [µM] | TGI (NCI/ADR-RES ovarian) [µM] | TGI (RPMI-8226 leukemia) [µM] | TGI (SF-539 CNS) [µM] | TGI (SW-620 colon) [µM] | TGI (T-47D breast) [µM] | TGI (UO-31 renal) [µM] | GI50 (HT29 colon) | GI50 (RPMI-8226 leukemia)
CCCCCCCCCCCCCCCCNC(=O)C(=O)/C=C(\O)c1ccc(C)cc1 | > 10 | > 10 | > 10 | > 10 | > 10 | > 10 | > 10 | > 10 | > 10 | > 10 | > 10 | > 10 | > 10 |  | 
O=C(O)C(O)C(O)C(=O)O (stereo not given) | > 100 | > 100 | > 100 | > 100 | > 100 | > 100 | > 100 | > 100 | > 100 | > 100 | > 100 | > 100 | > 100 |  | 
COC(=O)c1ccc(/C=C2\Oc3ccccc3C2=O)cc1 | > 100 | > 100 | > 100 | > 100 | > 100 | > 100 | > 100 | > 100 | > 100 | > 100 | > 100 | > 100 | > 100 |  | 
C=CCC1CC(n2cc(C)c(=O)[nH]c2=O)OC1CO[Si](C)(C)C(C)(C)C (stereo not given) | 28.8 | 29.9 | 19.8 | 29.4 | 30.9 | 35 | 38.9 | 31.5 | 47.5 | 28.3 | 31.9 | 26.8 | 24.9 |  | 
NC(=O)N/N=C(/CC1C(=O)Oc2ccccc21)c1ccccc1O (stereo not given) | > 100 | 56.9 | > 100 | > 100 | > 100 | > 100 | > 100 | 98.2 | 34.9 | 91.1 | > 100 | > 100 | > 100 |  | 
CC(NC(=O)NC(C)(C)C)NC(=O)C(N)CC(=O)O (stereo not given) | > 100 | > 100 | > 100 | > 100 | > 100 | > 100 | > 100 | > 100 | > 100 | > 100 | > 100 | > 100 | > 100 |  | 
Nc1nc(Cl)c(N)c(NCC2(CO)CC2)n1 | > 100 | > 100 | > 100 | > 100 | > 100 | > 100 | > 100 | > 100 | > 100 | > 100 | > 100 | > 100 | > 100 |  | 
O=C(O)CCS/C(=C\C(SCCC(=O)O)c1ccc(Cl)cc1)c1ccc(Cl)cc1 (stereo not given) | > 100 | > 100 | > 100 | > 100 | > 100 | 65.4 | > 100 | > 100 | 95.6 | > 100 | > 100 | > 100 | > 100 |  | 
C#C/C=C\CCCC/C=C\C#CC#CCCCC#CC#C[C@H](COS(=O)(=O)O)OS(=O)(=O)O | > 100 | > 100 | > 100 | > 100 | > 100 | > 100 | > 100 | > 100 | > 100 | > 100 | > 100 | > 100 | > 100 |  | 
CS(=O)(=O)OCCN(CCOS(C)(=O)=O)c1ccc(C=Nc2cccc(Cl)c2)cc1 | > 100 | > 100 | 46.6 | 98.9 | 33.6 | > 100 | > 33.4 | 27.3 | 32.6 | 27.3 | > 100 | > 100 | > 100 |  | 
Clc1ccc(C(c2ccccc2Cl)C(Cl)Cl)cc1 (stereo not given) | 36.7 | 47.1 | 32.6 | 37.1 | 33.7 | 37.1 | 39.3 | 37.1 | 49 | 36.5 | 39.2 | 33.3 | 37.4 |  | 
O=C(OC1C2OC(=O)c3cc(O)c(O)c(O)c3Oc3cc4c(c(O)c3O)-c3c(cc(O)c(O)c3O)C(=O)OCC3OC(O)C(OC(=O)c5cc(O)c(O)c(O)c5Oc5cc6c(c(O)c5O)-c5c(cc(O)c(O)c5O)C(=O)OC1C(COC6=O)OC2O)C(OC(=O)c1cc(O)c(O)c(O)c1)C3OC4=O)c1cc(O)c(O)c(O)c1 (stereo not given) | 47.1 | > 100 | 37.9 | 63.8 | 51.6 | 16.2 | 14.3 | > 100 | 50.1 | 65.6 | 40.5 | > 100 | > 100 |  | 
Cc1nc(C)c(N2CCN(S(=O)(=O)N(Cc3ccccc3)Cc3ccccc3)CC2)c(=O)[nH]1 | 23.5 | > 100 | > 100 | 38.8 | > 100 | > 100 | > 100 | > 100 | > 100 | 42.5 | > 100 | > 85.7 | > 100 |  | 
c1ccc2c(c1)c1c(n2CCOCCN2CCCC2)CCCC1 | 29.6 | 51 | 75.2 | 45.3 | 47.5 |  | 30.5 | 44.3 | 42.2 | 29.9 | 32.1 | 61.9 | 43.2 |  | 
c1cc2c(cc1NC1=NCCO1)OCO2 | > 100 | > 21.1 | > 100 | > 100 | > 100 | > 100 | > 100 | > 100 | > 100 | > 100 | > 100 | > 100 | > 100 |  | 
[N-]=[N+]=NC1OC(=O)C(Cl)=C1N=P(c1ccccc1)(c1ccccc1)c1ccccc1 (stereo not given) | > 10 | > 10 | > 10 | > 10 |  | > 10 | > 10 | > 10 | 8.33 | > 10 | > 10 | > 10 | > 10 |  | 
CC(C)(C)OC(=O)N(CCCCNC(=O)OCc1ccccc1)CCCNC(=O)OCc1ccccc1 | > 100 | > 100 | > 100 | > 100 | > 100 | > 100 | > 100 | > 100 | > 100 | > 100 | > 100 | > 100 |  |  | 
